Laboratory results published in patent US20110160311A1, “Sweetness Enhancers, Compositions Thereof, and Methods for Use” (The Coca-Cola Company, priority 2009, published 2011).

Key:
[1] = Sweetness detection threshold level in water, multi-sip and swallow taste method; type: in vivo, human; conditions: in water at room temperature
Source text: As used herein, the terms “sweetness threshold,” “sweetness recognition threshold,” and “sweetness detection threshold” are understood to mean the level at which the lowest known concentration of a certain sweet compound that is perceivable by the human sense of taste and it can vary from person to person. For example, a typical sweetness threshold level for sucrose in water can be 0.5%.
Further for example, the at least one sweetness enhancer to be used can be assayed in water at least 25% lower and at least 25% higher than the sucrose detection level of 0.5% in water to determine the sweetness threshold level.
(§1) A first sip (approximately 2.2 mL) of a ca. 20 mL control composition was taken and swallowed. After waiting for a time ranging from 15 to 25 seconds, a second sip of control composition was taken and swallowed, and the sweetness and/or taste of the control composition was noted. After waiting for a time ranging from 15 to 25 seconds, these steps were repeated with a comparative composition. The sweetness and taste differences between the control and the comparative composition were noted. For each tested composition, this cycle was repeated once to confirm the initial findings. All samples were measured at average 23.0° C.±1° C. between samples for consistent comparison and to minimize any effects of temperature on the perceived taste or sweetness of the composition.
(§2) To perform the taste test, three sweetener samples were paired with one additive and taste tested as described above. A three minute break was taken before tasting another three sweetener samples paired with a different additive. Up to 10 additives per day were used to minimize a fatigue factor. Before tasting, at least 1.5 hours elapsed after ingestion of any food, drink or nicotine. The tests were repeated on a different date to validate the initial findings.
The sweetness detection threshold levels for 21 entities were measured by a single assessor in water at room temperature according to the multi-sip and swallow taste method described herein.

[2] = Sweetness enhancement of glucose, fructose or sucrose at 6% SE in water by additive at its threshold level; type: in vivo, human; design: key: T: Slight thicker-like sweetness (not intensity factor).; No difference; N(S+): No difference but slightly more sweet (0.5-0.75%); +S: More sweetness intensity (~1.0% SE); ++S: Much more sweetness intensity (~2.0% SE); conditions: room temperature, additive at its Table 1 threshold level; for Sensory result versus FRU 55,000 ppm: fructose at 6% SE in water; for Sensory result versus GLU 99,000 ppm: glucose at 6% SE in water; for Sensory result versus SUC 60,000 ppm: sucrose at 6% SE in water
Method: as §1, §2
The twenty-one entities above were combined in a concentration at the sweetness detection threshold level listed in Table 1, with one of Glucose (GLU), Fructose (FRU), and Sucrose (SUG), each at a fixed SE (Sucrose Equivalents) level of 6%. The sweetness of the compositions was measured as described above at room temperature.

[3] = value is min. off-taste threshold

Row | Structure (SMILES) | Sweetness Detection Threshold Level ([1]; single assessor) | Sensory result versus FRU 55,000 ppm [2] | Sensory result versus GLU 99,000 ppm [2] | Sensory result versus SUC 60,000 ppm [2] | Sweetness Detection Threshold Level [1, 3]
1 | C=C1C[C@@]23CC[C@H]4[C@@](C)(CCC[C@@]4(C)C(=O)O[C@@H]4O[C@H](CO)[C@@H](O)[C@H](O)[C@H]4O)[C@@H]2CC[C@]1(O[C@@H]1O[C@H](CO)[C@@H](O)[C@H](O[C@@H]2O[C@H](CO)[C@@H](O[C@H]4O[C@H](CO)[C@@H](O)[C@H](O)[C@H]4O)[C@H](O)[C@H]2O)[C@H]1O[C@@H]1O[C@H](CO)[C@@H](O)[C@H](O)[C@H]1O)C3 [13-[(2-O-β-D-glucopyranosyl-3-O-(4-O-α-D-glucopyranosyl)-β-D-glucopyranosyl-β-D-glucopyranosyl)oxy] kaur-16-en-18-oic acid β-D-glucopyranosyl ester] | 50 ppm | T | T | N | 
2 | CC1=CC23CCC4C(C)(C(=O)OC5OC(CO)C(O)C(O)C5O)CCCC4(C)C2CCC1(OC1OC(CO)C(O)C(OC2OC(CO)C(O)C(O)C2O)C1OC1OC(CO)C(O)C(O)C1O)C3 [13-[(2-O-β-D-glucopyranosyl-3-O-β-D-glucopyranosyl-β-D-glucopyranosyl)oxy] kaur-15-en-18-oic acid β-D-glucopyranosyl ester] | 25 ppm | N(S+) (No difference but slightly more sweet (0.5-0.75%)) | N | N(S+) (No difference but slightly more sweet (0.5-0.75%)) | 
3 | C=C1C[C@@]23CC[C@H]4[C@@](C)(CCC[C@@]4(C)C(=O)O[C@@H]4O[C@H](CO)[C@@H](O)[C@H](O)[C@H]4O)[C@@H]2CC[C@]1(O[C@@H]1O[C@H](CO)[C@@H](O)[C@H](O[C@@H]2O[C@H](CO)[C@@H](O)[C@H](O)[C@H]2O)[C@H]1O)C3 [13-[(3-O-β-D-glucopyranosyl-β-D-glucopyranosyl)oxy] kaur-16-en-18-oic acid β-D-glucopyranosyl ester] | 35 ppm | N | N | N | 
4 | C=C1CC23CCC4C(C)(C(=O)OC5OC(CO)C(O)C(O)C5O)CCCC4(C)C2CCC1(O)C3 [13-hydroxy-kaur-16-en-18-oic acid β-D-glucopyranosyl ester] |  | N | N | N | 10 ppm
5 | C[C@@]12CC[C@@H]3[C@@](CC[C@H]4[C@@]3(C)CCC[C@@]4(C)C(=O)OC3OC(CO)C(O)C(O)C3O)(CC1=O)C2 (stereo partly drawn) [13-methyl-16-oxo-17-norkauran-18-oic acid β-D-glucopyranosyl ester] |  | N | N | N | 15 ppm
6 | C=C1C[C@@]23CC[C@H]4[C@@](C)(CCC[C@@]4(C)C(=O)O[C@@H]4O[C@H](CO)[C@@H](O)[C@H](O)[C@H]4O)[C@@H]2CC[C@]1(O[C@@H]1O[C@H](CO)[C@@H](O)[C@H](O)[C@H]1O[C@@H]1O[C@@H](C)[C@H](O)[C@@H](O)[C@H]1O)C3 [Dulcoside A] | 50 ppm | N | N | N | 
7 | C[C@H](CC[C@@H](O[C@@H]1O[C@H](CO[C@@H]2O[C@H](CO)[C@@H](O)[C@H](O)[C@H]2O)[C@@H](O)[C@H](O)[C@H]1O[C@@H]1O[C@H](CO)[C@@H](O)[C@H](O)[C@H]1O)C(C)(C)O)[C@H]1CC[C@@]2(C)[C@@H]3CC=C4[C@@H](CC[C@H](O[C@@H]5O[C@H](CO[C@@H]6O[C@H](CO)[C@@H](O)[C@H](O)[C@H]6O)[C@@H](O)[C@H](O)[C@H]5O)C4(C)C)[C@]3(C)[C@H](O)C[C@]12C [Mogroside V] | 20 ppm | N | N | N | 
